Assay results published in patent US20070128217A1 (priority 2003, published 2007).

Experiments:
[1] = system: antibodies in sera from SARS patients (sera 1a, 1b, 2, 6, 37, 62, London, SARS-yellow, SARS-green); type: binding, human; set-up: Binding of serum 6 to linear peptides of protein X1 of SARS-CoV Urbani / Binding of serum 37 to linear peptides of protein X1 of SARS-CoV Urbani / Binding of serum 6 to looped/cyclic peptide (PEPSCAN-ELISA) / Binding of serum 37 to looped/cyclic peptide (PEPSCAN-ELISA) / Binding of serum 37 to looped/cyclic peptides of protein X1 of SARS-CoV Urbani / Binding of serum 6 to linear peptides of protein X2 / Binding of serum 37 to linear peptides of protein X2 / Binding of serum 37 to looped/cyclic peptides of protein X2 of SARS-CoV Urbani / Binding of serum 6 to linear peptides of protein M of SARS-CoV Urbani / Binding of serum 37 to linear peptides of protein M of SARS-CoV Urbani / Binding of serum 6 to looped/cyclic peptides of protein M of SARS-CoV Urbani / Binding of serum 37 to looped/cyclic peptides of protein M of SARS-CoV Urbani / Binding of serum 6 to linear peptides of protein X3 of SARS-CoV Urbani / Binding of serum 37 to linear peptides of protein X3 of SARS-CoV Urbani / Binding of serum 37 to looped/cyclic peptides of protein X3 of SARS-CoV Urbani / Binding of serum 6 to linear peptides of protein X4 of SARS-CoV Urbani / Binding of serum 37 to linear peptides of protein X4 of SARS-CoV Urbani / Binding of serum 37 to looped/cyclic peptides of protein X4 of SARS-CoV Urbani / Binding of serum 6 to linear peptides of protein X5 of SARS-CoV Urbani / Binding of serum 37 to linear peptides of protein X5 of SARS-CoV Urbani / Binding of serum 37 to looped/cyclic peptides of protein X5 of SARS-CoV Urbani / Binding of serum 6 to linear peptides of protein N of SARS-CoV Urbani / Binding of serum 37 to linear peptides of protein N of SARS-CoV Urbani / Binding of serum 6 to linear peptide (PEPSCAN-ELISA) / Binding of serum 1a to looped/cyclic peptides of protein N of SARS-CoV Urbani / Binding of serum 1b to looped/cyclic peptides of protein N of SARS-CoV Urbani / Binding of serum 2 to looped/cyclic peptides of protein N of SARS-CoV Urbani / Binding of serum 6 to looped/cyclic peptides of protein N of SARS-CoV Urbani / Binding of serum 37 to looped/cyclic peptides of protein N of SARS-CoV Urbani / Binding of serum 62 to looped/cyclic peptides of protein N of SARS-CoV Urbani / Binding of serum London to looped/cyclic peptides of protein N of SARS-CoV Urbani / Binding of serum SARS-green to looped/cyclic peptides of protein N of SARS-CoV Urbani: unit not given here
[2] = system: control sera (pooled serum of ten healthy LUMC hospital workers; commercial negative donor pooled serum from the Dutch bloodbank); type: binding, human; set-up: Binding of Control serum LUMC to linear peptides / Binding of Control serum Blood-bank to linear peptides / Binding of Control serum LUMC to looped peptides / Binding of Control Serum Blood-Bank to Looped peptides / Binding of Control serum LUMC to linear peptides of the protein M of SARS-CoV Urbani / Binding of Control serum Blood-bank to linear peptides of the protein M of SARS-CoV Urbani / Binding of Control serum LUMC to looped peptides of the protein M of SARS-CoV Urbani / Binding of Control Serum Blood-Bank to Looped peptides of the protein M of SARS-CoV Urbani: unit not given here
[3] = system: rabbit serum obtained by immunizing a rabbit with the SARS-CoV strain Frankfurt 1; type: binding; set-up: Binding of a rabbit serum to linear peptides / Binding of a rabbit serum to looped peptides / Rabbit serum linear peptides / Rabbit serum looped peptides / Binding of a rabbit serum to linear peptides of protein N of SARS-CoV Urbani (Rabbit serum linear peptides) / Binding of a rabbit serum to looped/cyclic peptides of protein N of SARS-CoV Urbani (Rabbit serum looped peptides): unit not given here
[4] = system: recombinant human anti-SARS-CoV antibody 03-018; type: binding; set-up: Binding of antibody 03-018 to linear peptides of the N protein of SARS-CoV Urbani / Binding of antibody 03-018 to looped/cyclic peptides of the N protein of SARS-CoV Urbani: unit not given here

LTYHGAIKLDDKDPQ
0.5: Binding of serum 37 to looped/cyclic peptides of protein N of SARS-CoV Urbani [1] | Binding of serum London to linear peptides of protein N of SARS-CoV Urbani [1] | Control Serum Blood-Bank Looped peptides [2] | Control serum LUMC looped peptides [2] | Binding of a rabbit serum to looped/cyclic peptides of protein N of SARS-CoV Urbani (Rabbit serum looped peptides) [3]
0.2: Binding of serum 1a to linear peptides of protein N of SARS-CoV Urbani [1] | Binding of serum 2 to linear peptides of protein N of SARS-CoV Urbani [1] | Binding of serum 6 to linear peptides of protein N of SARS-CoV Urbani [1] | Binding of serum SARS-green to linear peptides of protein N of SARS-CoV Urbani [1] | Binding of antibody 03-018 to looped/cyclic peptides of the N protein of SARS-CoV Urbani [4]
1.0: Binding of serum 62 to linear peptides of protein N of SARS-CoV Urbani [1]
0.1: Binding of serum 1b to linear peptides of protein N of SARS-CoV Urbani [1] | Binding of serum 1b to looped/cyclic peptides of protein N of SARS-CoV Urbani [1] | Binding of serum 6 to looped/cyclic peptides of protein N of SARS-CoV Urbani [1] | Binding of serum SARS-green to looped/cyclic peptides of protein N of SARS-CoV Urbani [1] | Binding of a rabbit serum to linear peptides of protein N of SARS-CoV Urbani (Rabbit serum linear peptides) [3] | Binding of antibody 03-018 to linear peptides of the N protein of SARS-CoV Urbani [4]
0.7: Binding of serum SARS-yellow to linear peptides of protein N of SARS-CoV Urbani [1] | Control serum Blood-bank linear peptides [2]
0.3: Binding of serum 1a to looped/cyclic peptides of protein N of SARS-CoV Urbani [1] | Binding of serum 2 to looped/cyclic peptides of protein N of SARS-CoV Urbani [1] | Binding of serum 62 to looped/cyclic peptides of protein N of SARS-CoV Urbani [1]
0.6: Binding of serum 37 to linear peptides of protein N of SARS-CoV Urbani [1] | Control serum LUMC linear peptides [2]
0.4: Binding of serum London to looped/cyclic peptides of protein N of SARS-CoV Urbani [1] | Binding of serum SARS-yellow to looped/cyclic peptides of protein N of SARS-CoV Urbani [1]

GTGPEASLPYGANKE
0.3: Binding of serum 1a to linear peptides of protein N of SARS-CoV Urbani [1] | Binding of serum 2 to linear peptides of protein N of SARS-CoV Urbani [1] | Binding of serum 62 to looped/cyclic peptides of protein N of SARS-CoV Urbani [1] | Binding of serum London to looped/cyclic peptides of protein N of SARS-CoV Urbani [1] | Binding of a rabbit serum to looped/cyclic peptides of protein N of SARS-CoV Urbani (Rabbit serum looped peptides) [3]
0.4: Binding of serum 37 to looped/cyclic peptides of protein N of SARS-CoV Urbani [1] | Binding of Control Serum Blood-Bank to Looped peptides [2] | Binding of Control serum LUMC to looped peptides [2]
0.1: Binding of serum 1b to linear peptides of protein N of SARS-CoV Urbani [1] | Binding of serum 6 to looped/cyclic peptides of protein N of SARS-CoV Urbani [1] | Binding of a rabbit serum to linear peptides of protein N of SARS-CoV Urbani (Rabbit serum linear peptides) [3] | Binding of antibody 03-018 to linear peptides of the N protein of SARS-CoV Urbani [4]
0.9: Binding of serum 37 to linear peptides of protein N of SARS-CoV Urbani [1] | Binding of serum 62 to linear peptides of protein N of SARS-CoV Urbani [1]
0.6: Binding of serum SARS-yellow to linear peptides of protein N of SARS-CoV Urbani [1]
0.8: Binding of Control serum LUMC to linear peptides [2]
0.2: Binding of serum 1a to looped/cyclic peptides of protein N of SARS-CoV Urbani [1] | Binding of serum 1b to looped/cyclic peptides of protein N of SARS-CoV Urbani [1] | Binding of serum 2 to looped/cyclic peptides of protein N of SARS-CoV Urbani [1] | Binding of serum 6 to linear peptides of protein N of SARS-CoV Urbani [1] | Binding of serum SARS-green to looped/cyclic peptides of protein N of SARS-CoV Urbani [1] | Binding of serum SARS-yellow to looped/cyclic peptides of protein N of SARS-CoV Urbani [1] | Binding of antibody 03-018 to looped/cyclic peptides of the N protein of SARS-CoV Urbani [4]
0.7: Binding of serum London to linear peptides of protein N of SARS-CoV Urbani [1] | Binding of serum SARS-green to linear peptides of protein N of SARS-CoV Urbani [1] | Binding of Control serum Blood-bank to linear peptides [2]

NFGDQDLIRQGTDYK
0.2: Binding of serum 1a to looped/cyclic peptides of protein N of SARS-CoV Urbani [1] | Binding of serum 1b to linear peptide (PEPSCAN-ELISA) [1] | Binding of serum 2 to linear peptide (PEPSCAN-ELISA) [1] | Binding of serum 2 to looped/cyclic peptides of protein N of SARS-CoV Urbani [1] | Binding of serum 6 to linear peptide (PEPSCAN-ELISA) [1] | Binding of serum SARS-green to looped/cyclic peptides of protein N of SARS-CoV Urbani [1] | Binding of antibody 03-018 to looped/cyclic peptides of the N protein of SARS-CoV Urbani [4]
0.1: Binding of serum 1b to looped/cyclic peptides of protein N of SARS-CoV Urbani [1] | Binding of serum 6 to looped/cyclic peptides of protein N of SARS-CoV Urbani [1] | Binding of serum SARS-yellow to looped/cyclic peptides of protein N of SARS-CoV Urbani [1] | Binding of a rabbit serum to linear peptides of protein N of SARS-CoV Urbani (Rabbit serum linear peptides) [3] | Binding of a rabbit serum to looped/cyclic peptides of protein N of SARS-CoV Urbani (Rabbit serum looped peptides) [3] | Binding of antibody 03-018 to linear peptides of the N protein of SARS-CoV Urbani [4]
0.4: Binding of serum 37 to looped/cyclic peptides of protein N of SARS-CoV Urbani [1] | Binding of Control serum LUMC to looped peptides [2]
0.6: Binding of serum London to linear peptide (PEPSCAN-ELISA) [1] | Binding of serum SARS-yellow to linear peptide (PEPSCAN-ELISA) [1]
0.7: Binding of serum 37 to linear peptide (PEPSCAN-ELISA) [1] | Binding of serum 62 to linear peptide (PEPSCAN-ELISA) [1] | Binding of Control serum LUMC to linear peptides [2]
0.8: Binding of serum SARS-green to linear peptide (PEPSCAN-ELISA) [1] | Binding of Control serum Blood-bank to linear peptides [2]
0.3: Binding of serum 1a to linear peptide (PEPSCAN-ELISA) [1] | Binding of serum 62 to looped/cyclic peptides of protein N of SARS-CoV Urbani [1] | Binding of serum London to looped/cyclic peptides of protein N of SARS-CoV Urbani [1]
0.5: Binding of Control Serum Blood-Bank to Looped peptides [2]

GNSPARMASGGGETA
0.3: Binding of serum 1a to linear peptide (PEPSCAN-ELISA) [1] | Binding of serum 2 to looped/cyclic peptides of protein N of SARS-CoV Urbani [1] | Binding of serum London to looped/cyclic peptides of protein N of SARS-CoV Urbani [1] | Binding of serum SARS-green to looped/cyclic peptides of protein N of SARS-CoV Urbani [1]
0.1: Binding of serum 1b to linear peptide (PEPSCAN-ELISA) [1] | Binding of serum 1b to looped/cyclic peptides of protein N of SARS-CoV Urbani [1] | Binding of serum 6 to looped/cyclic peptides of protein N of SARS-CoV Urbani [1] | Binding of a rabbit serum to linear peptides of protein N of SARS-CoV Urbani (Rabbit serum linear peptides) [3]
0.0: Binding of serum SARS-yellow to looped/cyclic peptides of protein N of SARS-CoV Urbani [1] | Binding of a rabbit serum to looped/cyclic peptides of protein N of SARS-CoV Urbani (Rabbit serum looped peptides) [3]
0.2: Binding of serum 1a to looped/cyclic peptides of protein N of SARS-CoV Urbani [1] | Binding of serum 2 to linear peptide (PEPSCAN-ELISA) [1] | Binding of serum 6 to linear peptide (PEPSCAN-ELISA) [1] | Binding of serum 37 to looped/cyclic peptides of protein N of SARS-CoV Urbani [1] | Binding of serum 62 to looped/cyclic peptides of protein N of SARS-CoV Urbani [1] | Binding of serum SARS-green to linear peptide (PEPSCAN-ELISA) [1] | Binding of antibody 03-018 to linear peptides of the N protein of SARS-CoV Urbani [4] | Binding of antibody 03-018 to looped/cyclic peptides of the N protein of SARS-CoV Urbani [4]
0.7: Binding of Control serum LUMC to linear peptides [2]
0.6: Binding of serum 37 to linear peptide (PEPSCAN-ELISA) [1] | Binding of serum 62 to linear peptide (PEPSCAN-ELISA) [1] | Binding of serum London to linear peptide (PEPSCAN-ELISA) [1]
0.4: Binding of Control serum LUMC to looped peptides [2]
0.8: Binding of Control serum Blood-bank to linear peptides [2]
0.5: Binding of serum SARS-yellow to linear peptide (PEPSCAN-ELISA) [1] | Binding of Control Serum Blood-Bank to Looped peptides [2]
